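All cell lines were grown in 96-well plates and treated with compound for 48 hours. GI50 is the concentration that inhibits growth by half. TGI is the concentration that stops growth completely.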
Tests used:
Experiment in all cases: NCI-60 cell line screen, 48 h
SW-620 colon = system: SW-620 colon
HOP-92 NSCLC = system: HOP-92 NSCLC
NCI/ADR-RES ovarian = system: NCI/ADR-RES ovarian
SK-MEL-2 melanoma = system: SK-MEL-2 melanoma
HCT-15 colon = system: HCT-15 colon
OVCAR-3 ovarian = system: OVCAR-3 ovarian
K-562 leukemia = system: K-562 leukemia
KM12 colon = system: KM12 colon
HCT-116 colon = system: HCT-116 colon
HS 578T breast = system: HS 578T breast
COLO 205 colon = system: COLO 205 colon
SK-OV-3 ovarian = system: SK-OV-3 ovarian
786-0 renal = system: 786-0 renal
LOX IMVI melanoma = system: LOX IMVI melanoma
HCC-2998 colon = system: HCC-2998 colon
SK-MEL-28 melanoma = system: SK-MEL-28 melanoma
SF-268 CNS = system: SF-268 CNS
SF-539 CNS = system: SF-539 CNS
HT29 colon = system: HT29 colon
ACHN renal = system: ACHN renal
EKVX NSCLC = system: EKVX NSCLC
MDA-MB-231 breast = system: MDA-MB-231 breast
A498 renal = system: A498 renal
SN12C renal = system: SN12C renal
SK-MEL-5 melanoma = system: SK-MEL-5 melanoma
UACC-62 melanoma = system: UACC-62 melanoma
NCI-H522 lung = system: NCI-H522 lung
NCI-H226 lung = system: NCI-H226 lung
UO-31 renal = system: UO-31 renal
U251 CNS = system: U251 CNS
TK-10 renal = system: TK-10 renal
M14 melanoma = system: M14 melanoma
OVCAR-4 ovarian = system: OVCAR-4 ovarian
T-47D breast = system: T-47D breast
OVCAR-5 ovarian = system: OVCAR-5 ovarian
OVCAR-8 ovarian = system: OVCAR-8 ovarian
A549 NSCLC = system: A549 NSCLC
MCF7 breast = system: MCF7 breast
NCI-H23 lung = system: NCI-H23 lung
RPMI-8226 leukemia = system: RPMI-8226 leukemia
RXF 393 renal = system: RXF 393 renal
SNB-19 CNS = system: SNB-19 CNS
CAKI-1 renal = system: CAKI-1 renal
MOLT-4 leukemia = system: MOLT-4 leukemia
NCI-H460 lung = system: NCI-H460 lung
MALME-3M melanoma = system: MALME-3M melanoma
UACC-257 melanoma = system: UACC-257 melanoma
DU-145 prostate = system: DU-145 prostate
HL-60(TB) leukemia = system: HL-60(TB) leukemia
SNB-75 CNS = system: SNB-75 CNS
MDA-MB-435 = system: MDA-MB-435
BT-549 breast = system: BT-549 breast
IGROV1 ovarian = system: IGROV1 ovarian

O=C(Cc1n[nH]c(=O)c2ccccc12)OCc1c(Cl)cccc1Cl
GI50 (SW-620 colon): 49.8 µM | TGI (SW-620 colon): > 100 µM | GI50 (HOP-92 NSCLC): > 100 µM | TGI (HOP-92 NSCLC): > 100 µM | GI50 (NCI/ADR-RES ovarian): 93.6 µM | TGI (NCI/ADR-RES ovarian): > 100 µM | GI50 (SK-MEL-2 melanoma): > 100 µM | TGI (SK-MEL-2 melanoma): > 100 µM | GI50 (HCT-15 colon): 1.74 µM | TGI (HCT-15 colon): > 100 µM | GI50 (OVCAR-3 ovarian): 41.9 µM | TGI (OVCAR-3 ovarian): > 100 µM | GI50 (K-562 leukemia): 4.19 µM | TGI (K-562 leukemia): > 100 µM | GI50 (KM12 colon): 24.2 µM | TGI (KM12 colon): > 100 µM | GI50 (HCT-116 colon): 3.64 µM | TGI (HCT-116 colon): > 100 µM | GI50 (HS 578T breast): 17.4 µM | TGI (HS 578T breast): > 100 µM | GI50 (COLO 205 colon): 5.63 µM | TGI (COLO 205 colon): > 100 µM | GI50 (SK-OV-3 ovarian): 12.8 µM | TGI (SK-OV-3 ovarian): > 100 µM | GI50 (786-0 renal): 15.1 µM | TGI (786-0 renal): > 100 µM | GI50 (LOX IMVI melanoma): 5.16 µM | TGI (LOX IMVI melanoma): > 100 µM | GI50 (HCC-2998 colon): 50.4 µM | TGI (HCC-2998 colon): > 100 µM | GI50 (SK-MEL-28 melanoma): > 100 µM | TGI (SK-MEL-28 melanoma): > 100 µM | GI50 (SF-268 CNS): 9.21 µM | TGI (SF-268 CNS): > 100 µM | GI50 (SF-539 CNS): 10.1 µM | TGI (SF-539 CNS): > 100 µM | GI50 (HT29 colon): 15.6 µM | TGI (HT29 colon): > 100 µM | GI50 (ACHN renal): 82 µM | TGI (ACHN renal): > 100 µM | GI50 (EKVX NSCLC): > 100 µM | TGI (EKVX NSCLC): > 100 µM | GI50 (MDA-MB-231 breast): 69.8 µM | TGI (MDA-MB-231 breast): > 100 µM | GI50 (A498 renal): > 100 µM | TGI (A498 renal): > 100 µM | GI50 (SN12C renal): > 100 µM | TGI (SN12C renal): > 100 µM | GI50 (SK-MEL-5 melanoma): 4.18 µM | TGI (SK-MEL-5 melanoma): > 100 µM | GI50 (UACC-62 melanoma): 8.55 µM | TGI (UACC-62 melanoma): > 100 µM | GI50 (NCI-H522 lung): > 100 µM | TGI (NCI-H522 lung): > 100 µM | GI50 (NCI-H226 lung): 9.97 µM | TGI (NCI-H226 lung): > 100 µM | GI50 (UO-31 renal): > 100 µM | TGI (UO-31 renal): > 100 µM | GI50 (U251 CNS): 8.39 µM | TGI (U251 CNS): > 100 µM | GI50 (TK-10 renal): 41 µM | TGI (TK-10 renal): > 100 µM | GI50 (M14 melanoma): > 100 µM | TGI (M14 melanoma): > 100 µM | GI50 (OVCAR-4 ovarian): > 100 µM | TGI (OVCAR-4 ovarian): > 100 µM | GI50 (T-47D breast): 24.6 µM | TGI (T-47D breast): > 100 µM | GI50 (OVCAR-5 ovarian): > 100 µM | TGI (OVCAR-5 ovarian): > 100 µM | GI50 (OVCAR-8 ovarian): 36.5 µM | TGI (OVCAR-8 ovarian): > 100 µM | GI50 (A549 NSCLC): > 100 µM | TGI (A549 NSCLC): > 100 µM | GI50 (MCF7 breast): > 100 µM | TGI (MCF7 breast): > 100 µM | GI50 (NCI-H23 lung): > 100 µM | TGI (NCI-H23 lung): > 100 µM | GI50 (RPMI-8226 leukemia): 82.4 µM | TGI (RPMI-8226 leukemia): > 100 µM | GI50 (RXF 393 renal): 24.1 µM | TGI (RXF 393 renal): 68.3 µM | GI50 (SNB-19 CNS): 15.6 µM | TGI (SNB-19 CNS): > 100 µM | GI50 (CAKI-1 renal): 26.2 µM | TGI (CAKI-1 renal): > 100 µM | GI50 (MOLT-4 leukemia): 4.07 µM | TGI (MOLT-4 leukemia): > 100 µM | GI50 (NCI-H460 lung): 2.39 µM | TGI (NCI-H460 lung): > 100 µM | GI50 (MALME-3M melanoma): 48.5 µM | TGI (MALME-3M melanoma): > 100 µM | GI50 (UACC-257 melanoma): > 100 µM | TGI (UACC-257 melanoma): > 100 µM | GI50 (DU-145 prostate): 53.4 µM | TGI (DU-145 prostate): > 100 µM | GI50 (HL-60(TB) leukemia): 6.53 µM | TGI (HL-60(TB) leukemia): > 100 µM | GI50 (SNB-75 CNS): 25.8 µM | TGI (SNB-75 CNS): > 100 µM | GI50 (MDA-MB-435): > 100 µM | TGI (MDA-MB-435): > 100 µM | GI50 (BT-549 breast): 16.3 µM | TGI (BT-549 breast): > 100 µM | GI50 (IGROV1 ovarian): > 100 µM | TGI (IGROV1 ovarian): > 100 µM

Source: PubChem BioAssay (NCI)
